Assay results from PubChem BioAssay (NCI).
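Method: 48-hour compound exposure of cells in 96-well plates, five concentrations, linear interpolation of endpoints. TGI marks complete inhibition of growth.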

Assays:
Assay in all cases: growth of human tumour cells (NCI), 48 h
MCF7 breast = test system: MCF7 breast
MALME-3M melanoma = test system: MALME-3M melanoma
RPMI-8226 leukemia = test system: RPMI-8226 leukemia
SK-MEL-28 melanoma = test system: SK-MEL-28 melanoma
RXF 393 renal = test system: RXF 393 renal
A498 renal = test system: A498 renal
SW-620 colon = test system: SW-620 colon
TK-10 renal = test system: TK-10 renal
786-0 renal = test system: 786-0 renal
PC-3 prostate = test system: PC-3 prostate
MDA-N = test system: MDA-N
T-47D breast = test system: T-47D breast
NCI-H522 lung = test system: NCI-H522 lung
HCC-2998 colon = test system: HCC-2998 colon
LOX IMVI melanoma = test system: LOX IMVI melanoma
SR leukemia = test system: SR leukemia
SF-539 CNS = test system: SF-539 CNS
SNB-75 CNS = test system: SNB-75 CNS
MDA-MB-231 breast = test system: MDA-MB-231 breast
HT29 colon = test system: HT29 colon
SNB-19 CNS = test system: SNB-19 CNS
OVCAR-3 ovarian = test system: OVCAR-3 ovarian
CAKI-1 renal = test system: CAKI-1 renal
MOLT-4 leukemia = test system: MOLT-4 leukemia
UO-31 renal = test system: UO-31 renal
SF-268 CNS = test system: SF-268 CNS
OVCAR-8 ovarian = test system: OVCAR-8 ovarian
U251 CNS = test system: U251 CNS
DU-145 prostate = test system: DU-145 prostate
IGROV1 ovarian = test system: IGROV1 ovarian
ACHN renal = test system: ACHN renal
M14 melanoma = test system: M14 melanoma
HOP-62 NSCLC = test system: HOP-62 NSCLC
HL-60(TB) leukemia = test system: HL-60(TB) leukemia
KM12 colon = test system: KM12 colon
OVCAR-5 ovarian = test system: OVCAR-5 ovarian
HCT-15 colon = test system: HCT-15 colon
K-562 leukemia = test system: K-562 leukemia
NCI-H23 lung = test system: NCI-H23 lung
NCI-H226 lung = test system: NCI-H226 lung
NCI-H460 lung = test system: NCI-H460 lung
SN12C renal = test system: SN12C renal
OVCAR-4 ovarian = test system: OVCAR-4 ovarian
A549 NSCLC = test system: A549 NSCLC
SK-MEL-5 melanoma = test system: SK-MEL-5 melanoma
SF-295 CNS = test system: SF-295 CNS
EKVX NSCLC = test system: EKVX NSCLC
HCT-116 colon = test system: HCT-116 colon
HOP-92 NSCLC = test system: HOP-92 NSCLC
UACC-257 melanoma = test system: UACC-257 melanoma
BT-549 breast = test system: BT-549 breast
HS 578T breast = test system: HS 578T breast
CCRF-CEM leukemia = test system: CCRF-CEM leukemia
SK-OV-3 ovarian = test system: SK-OV-3 ovarian
NCI/ADR-RES ovarian = test system: NCI/ADR-RES ovarian
UACC-62 melanoma = test system: UACC-62 melanoma
COLO 205 colon = test system: COLO 205 colon
SK-MEL-2 melanoma = test system: SK-MEL-2 melanoma

SMILES: O=C(c1cc(Cl)ccc1Cl)N1CCN(C(=O)c2cc(Cl)ccc2Cl)CC1
- TGI (MCF7 breast): > 100 µM
- TGI (MALME-3M melanoma): > 100 µM
- TGI (RPMI-8226 leukemia): > 100 µM
- TGI (SK-MEL-28 melanoma): > 100 µM
- TGI (RXF 393 renal): > 100 µM
- TGI (A498 renal): > 100 µM
- TGI (SW-620 colon): > 100 µM
- TGI (TK-10 renal): > 100 µM
- TGI (786-0 renal): > 100 µM
- TGI (PC-3 prostate): > 100 µM
- TGI (MDA-N): > 100 µM
- TGI (T-47D breast): > 100 µM
- TGI (NCI-H522 lung): > 100 µM
- TGI (HCC-2998 colon): > 100 µM
- TGI (LOX IMVI melanoma): > 100 µM
- TGI (SR leukemia): > 100 µM
- TGI (SF-539 CNS): > 100 µM
- TGI (SNB-75 CNS): > 100 µM
- TGI (MDA-MB-231 breast): > 100 µM
- TGI (HT29 colon): > 100 µM
- TGI (SNB-19 CNS): > 100 µM
- TGI (OVCAR-3 ovarian): > 100 µM
- TGI (CAKI-1 renal): > 100 µM
- TGI (MOLT-4 leukemia): > 100 µM
- TGI (UO-31 renal): > 100 µM
- TGI (SF-268 CNS): > 100 µM
- TGI (OVCAR-8 ovarian): > 100 µM
- TGI (U251 CNS): > 100 µM
- TGI (DU-145 prostate): > 100 µM
- TGI (IGROV1 ovarian): > 100 µM
- TGI (ACHN renal): > 100 µM
- TGI (M14 melanoma): > 100 µM
- TGI (HOP-62 NSCLC): > 100 µM
- TGI (HL-60(TB) leukemia): > 100 µM
- TGI (KM12 colon): > 100 µM
- TGI (OVCAR-5 ovarian): > 100 µM
- TGI (HCT-15 colon): > 100 µM
- TGI (K-562 leukemia): > 100 µM
- TGI (NCI-H23 lung): > 100 µM
- TGI (NCI-H226 lung): > 100 µM
- TGI (NCI-H460 lung): > 100 µM
- TGI (SN12C renal): > 100 µM
- TGI (OVCAR-4 ovarian): > 100 µM
- TGI (A549 NSCLC): > 100 µM
- TGI (SK-MEL-5 melanoma): > 100 µM
- TGI (SF-295 CNS): > 100 µM
- TGI (EKVX NSCLC): > 100 µM
- TGI (HCT-116 colon): > 100 µM
- TGI (HOP-92 NSCLC): > 100 µM
- TGI (UACC-257 melanoma): > 100 µM
- TGI (BT-549 breast): > 100 µM
- TGI (HS 578T breast): > 100 µM
- TGI (CCRF-CEM leukemia): > 100 µM

SMILES: COc1ccc(-c2c(C#N)c(S)n(NS(=O)(=O)c3ccc(C)cc3)c(=O)c2C#N)cc1
- TGI (SK-OV-3 ovarian): > 100 µM
- TGI (MCF7 breast): > 100 µM
- TGI (MALME-3M melanoma): > 100 µM
- TGI (RPMI-8226 leukemia): 15.4 µM
- TGI (SK-MEL-28 melanoma): 63.2 µM
- TGI (NCI/ADR-RES ovarian): 58.9 µM
- TGI (RXF 393 renal): 42.5 µM
- TGI (A498 renal): > 100 µM
- TGI (SW-620 colon): 34.7 µM
- TGI (TK-10 renal): > 100 µM
- TGI (786-0 renal): 31.7 µM
- TGI (PC-3 prostate): 67.5 µM
- TGI (MDA-N): 37.5 µM
- TGI (NCI-H522 lung): 33.7 µM
- TGI (HCC-2998 colon): > 100 µM
- TGI (LOX IMVI melanoma): 29.8 µM
- TGI (SF-539 CNS): 29.8 µM
- TGI (SNB-75 CNS): > 100 µM
- TGI (MDA-MB-231 breast): 42.7 µM
- TGI (HT29 colon): > 100 µM
- TGI (SNB-19 CNS): > 100 µM
- TGI (CAKI-1 renal): > 100 µM
- TGI (MOLT-4 leukemia): 34.3 µM
- TGI (SF-268 CNS): 88 µM
- TGI (OVCAR-8 ovarian): 74.8 µM
- TGI (UACC-62 melanoma): 31.5 µM
- TGI (COLO 205 colon): 44.6 µM
- TGI (U251 CNS): > 100 µM
- TGI (IGROV1 ovarian): 33.9 µM
- TGI (ACHN renal): 41.3 µM
- TGI (M14 melanoma): 52.9 µM
- TGI (HOP-62 NSCLC): > 100 µM
- TGI (HL-60(TB) leukemia): 33.2 µM
- TGI (KM12 colon): 77.5 µM
- TGI (OVCAR-5 ovarian): 60.7 µM
- TGI (HCT-15 colon): 32.4 µM
- TGI (K-562 leukemia): 47.2 µM
- TGI (NCI-H226 lung): 89.5 µM
- TGI (NCI-H460 lung): > 100 µM
- TGI (SN12C renal): 34.8 µM
- TGI (OVCAR-4 ovarian): > 100 µM
- TGI (A549 NSCLC): > 100 µM
- TGI (SK-MEL-5 melanoma): 30 µM
- TGI (SF-295 CNS): > 100 µM
- TGI (EKVX NSCLC): 68.3 µM
- TGI (HCT-116 colon): 28 µM
- TGI (HOP-92 NSCLC): > 100 µM
- TGI (UACC-257 melanoma): > 100 µM
- TGI (SK-MEL-2 melanoma): 32.1 µM
- TGI (BT-549 breast): 32.5 µM
- TGI (CCRF-CEM leukemia): 26.8 µM
